Reference: patent US8343990B2, “Substituted cyclopropyl compounds, compositions containing such compounds and methods of treatment” (Merck Sharp & Dohme Corp., priority 2008, dated 2013)

Molecular target: T1, GPR119 receptor (UniProt Q8TDV5, S309L, species not given)
T1 sequence (Q8TDV5 1-335 S309L): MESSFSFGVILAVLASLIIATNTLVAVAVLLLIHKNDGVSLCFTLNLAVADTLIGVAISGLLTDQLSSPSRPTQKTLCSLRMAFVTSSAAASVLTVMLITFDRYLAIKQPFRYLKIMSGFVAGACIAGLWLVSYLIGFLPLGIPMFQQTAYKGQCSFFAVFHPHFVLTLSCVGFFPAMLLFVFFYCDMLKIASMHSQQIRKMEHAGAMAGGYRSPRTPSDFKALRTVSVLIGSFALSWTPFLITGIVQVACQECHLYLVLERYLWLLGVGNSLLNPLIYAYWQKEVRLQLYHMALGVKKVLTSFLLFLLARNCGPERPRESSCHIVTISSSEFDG
Assay: GPR119 signaling, cyclic AMP (cAMP) homogenous time resolved fluorescence (HTRF) assay
Format: cell-based
Conditions: CHO cells with Gα15 and murine GPR119, or HEK293 Flp-In cells with human GPR119 S309L; table does not say which; read-out: Activity: inflection points, denoted as EC50 values (agonist activation of GPR119, cAMP)
Source text: Measurement of GPR119 Signaling Using a Cyclic AMP (cAMP) Homogenous Time Resolved Fluorescence (HTRF) Assay
Chinese hamster ovary (CHO) cell lines stably transfected with the permissive guanine nucleotide binding protein alpha 15 (Gα15) and […] GPR119 were maintained in DMEM media containing FBS, penicillin-streptomycin, puromycin, and G418 (geneticin). Alternatively, human embryonic kidney (HEK)293 Flp-In cells (Invitrogen, Carlsbad, Calif.) were stably transfected with a human SNP variant (S309L) of GPR119 and maintained in DMEM media containing FBS, penicillin-streptomycin, and hygromycin. Agonist activation of the GPR119 receptor was measured in receptor transfected cells described above, treated with compounds of this invention, using a commercial homogenous time resolved fluorescence (HTRF) kit for measurement of cAMP (CisBio, Bedford, Mass.). The assay was performed in 96-well half-volume plates (murine) or 384-well plates (human) following the manufacturers instructions. Briefly, suspended cells were incubated with a dose titration of test compound at room temperature for 60 min, lysed, and incubated with HTRF reagents for an additional 60 min. The plate was read using an Envision multilabel reader (Perkin Elmer) adjusted to read time resolved fluorescence and the cAMP concentrations were extrapolated from a cAMP calibration curve. […] The concentration of test compound required to stimulate a half-maximal response (EC50), and efficacy as compared to an internal agonist control, was determined from a sigmoidal 4-parameter curve fit of the resulting plot of normalized activity versus compound concentration.

Compound	EC50
Cc1nc(C#N)cc(OCC[C@@H]2C[C@@H]2C2CCN(c3ccc(C(F)(F)F)cn3)CC2)n1 (racemic) [Ex 47, Rac-cis-2-methyl-6-[2-(2-{1-[5-(trifluoromethyl)pyridin-2-yl]piperidin-4-yl}cyclopropyl)ethoxy]pyrimidine-4-carbonitrile]	< 10 nM
CS(=O)(=O)c1ccc(OCCC2CC2C2CCN(c3ncc(Cl)cn3)CC2)cc1 (racemic) [Ex 6, rac cis-5-chloro-2-[4-(2-{2-[4-(methylsulfonyl)phenoxy]ethyl}cyclopropyl)piperidin-1-yl]pyrimidine]	< 10 nM
O=S(=O)(c1ccc(OCCC2CC2C2CCN(c3ncc(Cl)cn3)CC2)cc1)C1CC1 (racemic) [Ex 13, rac cis-5-chloro-2-[4-(2-{2-[4-(cyclopropylsulfonyl)phenoxy]ethyl}cyclopropyl)piperidin-1-yl]pyrimidine]	10 to 50 nM
Cc1cnc(N2CCC([C@@H]3C[C@@H]3CCOc3ccc(-c4nnc(C)o4)c(F)c3)CC2)nc1 (racemic) [Ex 84, rac-cis-2-[4-(2-{2-[3-fluoro-4-(5-methyl-1,3,4-oxadiazol-2-yl)phenoxy]ethyl}cyclopropyl)piperidin-1-yl]-5-methylpyrimidine]	< 10 nM
N#Cc1ccc(OCC2CC2CC2CCN(c3ncc(Cl)cn3)CC2)c(F)c1 (racemic) [Ex 115, rac-trans-4-[((1S,2S)-2-{[1-(5-chloropyrimidin-2-yl)piperidin-4-yl)methyl}cyclopropyl)methoxy]-3-fluorobenzonitrile]	10 to 50 nM
N#Cc1ccc(OC[C@@H]2C[C@@H]2CC2CCN(c3ncc(Cl)cn3)CC2)cc1F (racemic) [Ex 119, rac-cis 4-[(2-{[1-(5-chloropyrimidin-2-yl)piperidin-4-yl]methyl}cyclopropyl)methoxy]-2-fluorobenzonitrile]	> 200 nM
O=C(NC1CC1)c1ccc(OC[C@@H]2C[C@H]2CC2CCN(c3ncc(Cl)cn3)CC2)cc1F (racemic) [Ex 106, Rac-trans 4-[(2-{[1-(5-chloropyrimidin-2-yl)piperidin-4-yl]methyl}cyclopropyl)methoxy]-N-cyclopropyl-2-fluorobenzamide]	< 10 nM
Cc1nc(C#N)cc(OCC[C@@H]2C[C@@H]2C2CCN(c3cc(C)c(Cl)cn3)CC2)n1 (racemic) [Ex 45, Rac-cis-6-(2-{2-[1-(5-chloro-4-methylpyridin-2-yl)piperidin-4-yl]cyclopropyl}ethoxy)-2-methylpyrimidine-4-carbonitrile]	10 to 50 nM
N#Cc1ccc(OCC[C@H]2C[C@@H]2C2CCN(c3ncc(Cl)cn3)CC2)cc1F [Ex 94, 4-(2-{(1R,2R)-2-[1-(5-chloropyrimidin-2-yl)piperidin-4-yl]cyclopropyl}ethoxy)-2-fluorobenzonitrile]	50 to 200 nM
CS(=O)(=O)c1ccc(OCC[C@H]2C[C@@H]2C2CCN(c3ncc(Cl)cn3)CC2)cc1 [Ex 91, 5-chloro-2-[4-((1R,2R)-2-{2-[4-(methylsulfonyl)phenoxy]ethyl}cyclopropyl)piperidin-1-yl]pyrimidine]	10 to 50 nM
O=C(NC1CC1)c1ccc(OCC[C@H]2C[C@@H]2C2CCN(c3ncc(Cl)cn3)CC2)cc1F [Ex 93, 4-(2-{(1R,2R)-2-[1-(5-chloropyrimidin-2-yl)piperidin-4-yl]cyclopropyl}ethoxy)-N-cyclopropyl-2-fluorobenzamide]	< 10 nM
O=C(NC1CC1)c1ccc(OC[C@H]2C[C@@H]2CC2CCN(c3ncc(Cl)cn3)CC2)cc1F [Ex 108, 4-[((1S,2S)-2-{[1-(5-chloropyrimidin-2-yl)piperidin-4-yl]methyl}cyclopropyl)methoxy]-N-cyclopropyl-2-fluorobenzamide]	10 to 50 nM
Cc1nnc(-c2ccc(OCC[C@H]3C[C@H]3C3CCN(c4ncc(F)cn4)CC3)cc2F)o1 (racemic) [Ex 86, Rac-cis-5-fluoro-2-[4-(2-{2-[3-fluoro-4-(5-methyl-1,3,4-oxadiazol-2-yl)phenoxy]ethyl}cyclopropyl)piperidin-1-yl]pyrimidine]	< 10 nM
Cc1nc(C#N)cc(OCCC2CC2C2CCN(c3ncc(Cl)cn3)CC2)n1 (racemic) [Ex 100, rac trans 6-(2-{2-[1-(5-chloropyrimidin-2-yl)piperidin-4-yl]cyclopropyl}ethoxy)-2-methylpyrimidine-4-carbonitrile]	10 to 50 nM
Cc1nnc(-c2ccc(OCC[C@H]3C[C@@H]3C3CCN(c4ncc(Cl)cn4)CC3)cc2F)o1 [Ex 96, 5-chloro-2-[4-((1R,2R)-2-{2-[3-fluoro-4-(5-methyl-1,3,4-oxadiazol-2-yl)phenoxy]ethyl}cyclopropyl)piperidin-1-yl)pyrimidine]	10 to 50 nM
Cc1cnc(N2CCC([C@H]3C[C@H]3CCOc3cc(C#N)nc(C)n3)CC2)nc1 (racemic) [Ex 40, Rac-cis-2-methyl-6-(2-{2-[1-(5-methylpyrimidin-2-yl)piperidin-4-yl]cyclopropyl}ethoxy)pyrimidine-4-carbonitrile]	< 10 nM

Other lines, results leading:

EC50	Compound
50 to 200 nM	Clc1cnc(N2CCC(C3CC3CCOc3ccc(-c4ncno4)cc3)CC2)nc1 (racemic) [Ex 18, rac cis-5-chloro-2-[4-(2-{2-[4-(1,2,4-oxadiazol-5-yl)phenoxy]ethy]}cyclopropyl)piperidin-1-yl]pyrimidine]
10 to 50 nM	Clc1cnc(N2CCC(C3CC3CCOc3ccc(-n4cncn4)cc3)CC2)nc1 (racemic) [Ex 25, rac cis-5-chloro-2-[4-(2-{2-[4-(1H-1,2,4-triazol-1-yl)phenoxy]ethyl}cyclopropyl)piperidin-1-yl]pyrimidine]
50 to 200 nM	Clc1cnc(N2CCC(C3CC3CCOc3ccncn3)CC2)nc1 (racemic) [Ex 49, Rac-cis-5-chloro-2-(4-{2-[2-(pyrimidin-4-yloxy)ethyl]cyclopropyl}piperidin-l-yl)pyrimidine]
< 10 nM	Fc1cc(OCCC2CC2C2CCN(c3ncc(Cl)cn3)CC2)ccc1-n1cnnn1 (racemic) [Ex 30b, rac cis-5-chloro-2-[4-(2-{2-[3-fluoro-4-(1H-tetrazol-1-yl)phenoxy]ethyl}cyclopropyl)piperidin-1-yl]pyrimidine]
< 10 nM	Clc1cnc(N2CCC(C3CC3CCOc3ccc(-n4ccnn4)cc3)CC2)nc1 (racemic) [Ex 27, rac cis-5-chloro-2-[4-(2-{2-[4-(1H-1,2,3-triazol-1-yl)phenoxy]ethyl}cyclopropyl)piperidin-1-yl]pyrimidine]
< 10 nM	Cc1nnn(-c2ccc(OCCC3CC3C3CCN(c4ncc(Cl)cn4)CC3)cc2)n1 (racemic) [Ex 31a, rac cis-5-chloro-2-[4-(2-{2-[4-(5-methyl-2H-tetrazol-2-yl)phenoxy]ethyl}cyclopropyl)piperidin-1-yl]pyrimidine]
50 to 200 nM	Clc1cnc(N2CCC(C3CC3CCOc3ccc(-c4cnoc4)cc3)CC2)nc1 (racemic) [Ex 20, rac cis-5-chloro-2-(4-{2-[2-(4-isoxazol-4-ylphenoxy)ethyl]cyclopropyl)piperidin-1-yl)pyrimidine]
< 10 nM	Clc1cnc(N2CCC(C3CC3CCOc3ccc(-n4ccnn4)cn3)CC2)nc1 (single isomer, unassigned) [Ex 55a, Chiral cis-5-chloro-2-{4-[2-(2-{[5-(1H-1,2,3-triazol-1-yl)pyridin-2-yl]oxy}ethyl)cyclopropyl]piperidin-1-yl}pyrimidine]
10 to 50 nM	Cc1nnnn1-c1ccc(OCCC2CC2C2CCN(c3ncc(Cl)cn3)CC2)cc1 (racemic) [Ex 31b, rac cis-5-chloro-2-[4-(2-{2-[4-(5-methyl-1H-tetrazol-1-yl)phenoxy]ethyl}cyclopropyl)piperidin-1-yl]pyrimidine]
> 200 nM	Clc1cnc(N2CCC(C3CC3CCOc3cccc(-c4nnco4)c3)CC2)nc1 (racemic) [Ex 10, rac cis-5-chloro-2-[4-(2-{2-[3-(1,3,4-oxadiazol-2-yl)phenoxy]ethyl}cyclopropyl)piperidin-1-yl]pyrimidine]
< 10 nM	Clc1cnc(N2CCC(C3CC3CCOc3ccc(-n4cnnn4)cc3)CC2)nc1 (racemic) [Ex 30, rac cis-5-chloro-2-[4-(2-{2-[4-(1H-tetrazol-1-yl)phenoxy]ethyl}cyclopropyl)piperidin-1-yl]pyrimidine]
50 to 200 nM	Clc1cnc(N2CCC(C3CC3CCOc3ccc(-n4cccn4)cc3)CC2)nc1 (racemic) [Ex 24, rac cis-5-chloro-2-[4-(2-{2-[4-(1H-pyrazol-1-yl)phenoxy]ethyl}cyclopropyl)piperidin-1-yl]pyrimidine]
10 to 50 nM	Clc1cnc(N2CCC(C3CC3CCOc3ccc(-n4ncnn4)cc3)CC2)nc1 (racemic) [Ex 31, rac cis-5-chloro-2-[4-(2-{2-[4-(2H-tetrazol-2-yl)phenoxy]ethyl}cyclopropyl)piperidin-1-yl]pyrimidine]
